Source: patent US11213506B2, “Combination therapy for the treatment or prevention of tumours” (QBIOTICS PTY LTD, priority 2017, dated 2022)

Experiments:
[1] = system: B16-OVA cells; assay: Calreticulin externalization assay (flow cytometry); type: cell-based, mouse; settings: within 60 minutes of treatment
Protocol: Calreticulin externalization was determined as previously detailed (Gomez-Cadena et al. 2016). Briefly, cells (A431, MM649, B16-OVA) cultured in complete medium at 37° C., 5% CO2 were detached via trypsinisation, centrifuged at 1,200 rpm and washed ×2 with fresh medium. After an additional round of centrifugation, the resultant cell pellet was resuspended at a concentration of 1×10^6 cells/ml, after which epoxytigliane was added to a final concentration of 500 or 300 μM. Ethanol only controls were also performed. Cell suspensions were incubated at 37° C., 5% CO2 and at the indicated timepoints, 200 μl of sample was removed and incubated with LIVE/DEAD fixable far red stain for 5 mins on ice. Following this, cells were pelleted at 1,200 rpm for 4 mins and washed ×1 with PBS. 500 μl of PBS, 0.25% formaldehyde was then added to each pellet to perform a light fixation without compromising plasma membrane integrity. […]
Samples were gated by FSC-H v FSC-A first to identify single cells, after which the LIVE/DEAD stain (Ex: 640 nm, Em: 670/14) negative (intact cell) population was analysed for green fluorescence (Ex: 488 nm, Em: 530/30; calreticulin externalization). Mean fluorescence intensity values were subsequently determined and graphed versus time.

[2] = system: CD11c+ BMDCs with B16-OVA cells; assay: BMDC uptake of epoxytigliane treated B16-OVA cells; type: cell-based, C57Bl/6 mice
Protocol: The tibias and […] from four 7-8 week old C57Bl/6 mice were first surgically removed under sterile conditions. The marrow was flushed from the bone cavity with 10 ml of ice cold R10 media (using a 27G needle/syringe into a 50 ml polypropylene tube). Cells were pelleted at 1,500 rpm for 5 mins and washed ×2 with ice cold R10 media. After resuspension of the pellet into 10 ml of ice cold R10 medium, cells were counted using an improved haemocytometer and plated at a density of 2×10^6 cells per plate (petri dish) in 10 ml of R10 supplemented with 20 ng/ml murine GM-CSF. All plates were incubated at 37° C., 5% CO2 and at day 3 an additional 10 ml R10 with 20 ng/ml GM-CSF was added. Cells were again fed at day 6 and used for downstream assays on day 7.
Prior to co-incubation with BMDCs, B16-OVA cells were trypsinised, centrifuged at 1,200 rpm for 4 mins to pellet cells and washed ×2 with complete medium. Cells were then stained with 2 μM Cell Tracker Green in complete medium for 45 mins, after which they were pelleted and washed ×2 as above. Labelled B16-OVA cells were subsequently treated with Compounds 1, 2, 3 and 4 at two concentrations (500 or 300 μM) in media at a density of 1×10^6 cells/ml for 30 and 60 mins, after which cells were pelleted via centrifugation, supernatant removed via aspiration and the cell pellet washed ×1 with complete media. After the wash, the treated cells were resuspended in R10 media, inserted into the wells of a 6-well plate (Corning, #3471. Ultra low attachment surface) and BMDCs added. Co-cultures were incubated for 4 h after which cell suspensions were transferred to a microfuge tube and centrifuged at 1,500 rpm for 5 mins. Pellets were resuspended in 100 μl FACs buffer containing anti-CD11c-APC and incubated for 10 mins at 4° C. Cells were again pelleted, washed ×1 with FACs buffer and then fixed using PBS, 1% formaldehyde for 10 mins. After centrifugation and removal of the supernatant, cells were resuspended in 500 μl FACs buffer in preparation for flow cytometry.
Samples were first gated by FSC-H v FSC-A, then SSC-H v SS-A to identify single cells. The proportion of CD11c^+ cells (Ex: 640 nm, Em: 670/14) with CMFDAmid (Ex: 488 nm, Em: 530/30) were then determined for treated and untreated cells as a percentage of all CD11c^+ cells.

[3] = system: A431 cells; assay: Lactate dehydrogenase (LDH) release assay; type: cell-based, human; settings: 300 μM and 500 μM
Protocol: (§1) A431 (human epidermoid carcinoma), MM649 (human melanoma), B16-OVA (B16-F10 mouse melanoma cell line stably transfected with chicken ovalbumin), MM415 (human melanoma) and FaDu (human hypopharyngeal carcinoma) cells were cultured in RPMI-1640, 10% FCS (complete medium) at 37° C., 5% CO2 in a humidified incubator. All cell lines used in this study were confirmed as mycoplasma negative using MycoAlert (Lonza). STR profiling was also performed to confirm the identity of the human cell lines used.
(§2) Measuring the release of LDH is a well-recognised assay to assess plasma membrane permeabilisation and detect cell death by necrosis (Chan et al. 2013). Three cell lines (A431, MM649 and B16-OVA) were used in these assays. Cells were plated at a density of 10,000 cells per well into clear 96-well plates (Corning, #3595; 100 μl of complete media) and the resultant plates incubated overnight as previously detailed. The following day, media was aspirated from each well and 50 μl of fresh medium was inserted. Stock solutions of Compound 1 were diluted to 2× final assay concentrations (1 mM and 600 μM) and 50 μl of these dilutions added to the required wells. […] OD490 nm and OD690 nm readings were recorded for each sample using a Hybrid Synergy H4 plate reader. Absorbance readings from drug treated samples were normalized to detergent treated controls to determine the % LDH release per well.

[4] = system: MM649 cells; assay: Lactate dehydrogenase (LDH) release assay; type: cell-based, human; settings: 300 μM and 500 μM
Protocol: as §1, §2

C/C=C(\C)C(=O)O[C@@H]1[C@@H](C)[C@@]2(O)[C@H]([C@@H]3C(C)(C)[C@]13OC(=O)[C@@H](C)CC)[C@@H]1O[C@]1(CO)[C@@H](O)[C@]1(O)C(=O)C(C)=C[C@H]12 [Compound 1, 12-tigloyl-13-(2-methylbutanoyl)-6,7-epoxy-4,5,9,12,13,20-hexahydroxy-1-tiglien-3-one]
calreticulin externalisation (mean fluorescence intensity) [1]: significant increases in mean fluorescence intensity | dependence of antigen uptake on concentration and treatment time ([2]; 500 μM compared to the use of 300 μM): antigen uptake occurs to a greater extent after a shorter treatment time | uptake of dying cancer cell fragments by CD11c+ dendritic cells/macrophages (BMDCs) ([2]; B16-OVA treated at 500 or 300 μM for 30 and 60 mins, 4 h co-culture): promotes the uptake | LDH release compared to the controls [3]: significant release of LDH | LDH release compared to the controls [4]: significant release of LDH
